Measured values as given in patent publication US7045528B2, “Benzofused heterozryl amide derivatives of thienopyridines useful as therapeutic agents, pharmaceutical compositions including the same, and methods for their use” (Agouron Pharmaceuticals, Inc., priority 2002, dated 2006).

What was measured:
[1] = target: T1, unphosphorylated VEGF-R2Δ50 (FLVK) (Homo sapiens, UniProt P35968, DEL940-989/E990V); test: VEGF-R2 coupled spectrophotometric assay, unphosphorylated VEGF-R2Δ50 (FLVK); assay type: biochemical; settings: unphosphorylated VEGF-R2Δ50; for inhibition at 0.05 µM: 50 nM compound, read-out: FLVK (% inh @ 50 nM)
T1 construct: VEGF-R2Δ50 contains residues 806–939 and 990–1171; made in house; host or cells: baculovirus/insect cell system
T1 sequence (P35968 with tags, fused parts or gaps DEL940-989/E990V limits assumed): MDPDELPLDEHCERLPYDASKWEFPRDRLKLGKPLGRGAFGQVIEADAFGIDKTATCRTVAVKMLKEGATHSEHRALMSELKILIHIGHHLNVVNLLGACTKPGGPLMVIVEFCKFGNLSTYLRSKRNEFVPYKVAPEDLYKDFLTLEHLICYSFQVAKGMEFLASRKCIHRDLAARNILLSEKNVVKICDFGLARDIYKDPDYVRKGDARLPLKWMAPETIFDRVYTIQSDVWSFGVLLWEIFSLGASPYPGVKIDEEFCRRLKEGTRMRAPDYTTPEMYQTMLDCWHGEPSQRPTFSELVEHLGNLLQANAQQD
Summary of the method: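 Ki obtained by Morrison-equation fitting of activity at varied compound levels; reaction started with 5–40 nM enzyme. Non-autophosphorylated kinase construct (insect cell-expressed) with 3 mM ATP, 20 mM poly(E4Y1), 60 mM MgCl2 plus 2 mM MnCl2, pH 7.5 HEPES; NADH loss at 340 nm via PK/LDH coupling.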

[2] = target: T2, KDR (VEGFR2) (Homo sapiens, UniProt P35968); test: KDR (VEGFR2) phosphorylation in PAE-KDR cells assay; assay type: cell-based; settings: PAE cells overexpressing human KDR, VEGF stimulated; read-out: PAE KDR autophos IC50 (nM) AVG
T2 construct: expressed in transfected cells; host or cells: porcine aorta endothelial (PAE)-KDR cells
T2 sequence (P35968 20-1356): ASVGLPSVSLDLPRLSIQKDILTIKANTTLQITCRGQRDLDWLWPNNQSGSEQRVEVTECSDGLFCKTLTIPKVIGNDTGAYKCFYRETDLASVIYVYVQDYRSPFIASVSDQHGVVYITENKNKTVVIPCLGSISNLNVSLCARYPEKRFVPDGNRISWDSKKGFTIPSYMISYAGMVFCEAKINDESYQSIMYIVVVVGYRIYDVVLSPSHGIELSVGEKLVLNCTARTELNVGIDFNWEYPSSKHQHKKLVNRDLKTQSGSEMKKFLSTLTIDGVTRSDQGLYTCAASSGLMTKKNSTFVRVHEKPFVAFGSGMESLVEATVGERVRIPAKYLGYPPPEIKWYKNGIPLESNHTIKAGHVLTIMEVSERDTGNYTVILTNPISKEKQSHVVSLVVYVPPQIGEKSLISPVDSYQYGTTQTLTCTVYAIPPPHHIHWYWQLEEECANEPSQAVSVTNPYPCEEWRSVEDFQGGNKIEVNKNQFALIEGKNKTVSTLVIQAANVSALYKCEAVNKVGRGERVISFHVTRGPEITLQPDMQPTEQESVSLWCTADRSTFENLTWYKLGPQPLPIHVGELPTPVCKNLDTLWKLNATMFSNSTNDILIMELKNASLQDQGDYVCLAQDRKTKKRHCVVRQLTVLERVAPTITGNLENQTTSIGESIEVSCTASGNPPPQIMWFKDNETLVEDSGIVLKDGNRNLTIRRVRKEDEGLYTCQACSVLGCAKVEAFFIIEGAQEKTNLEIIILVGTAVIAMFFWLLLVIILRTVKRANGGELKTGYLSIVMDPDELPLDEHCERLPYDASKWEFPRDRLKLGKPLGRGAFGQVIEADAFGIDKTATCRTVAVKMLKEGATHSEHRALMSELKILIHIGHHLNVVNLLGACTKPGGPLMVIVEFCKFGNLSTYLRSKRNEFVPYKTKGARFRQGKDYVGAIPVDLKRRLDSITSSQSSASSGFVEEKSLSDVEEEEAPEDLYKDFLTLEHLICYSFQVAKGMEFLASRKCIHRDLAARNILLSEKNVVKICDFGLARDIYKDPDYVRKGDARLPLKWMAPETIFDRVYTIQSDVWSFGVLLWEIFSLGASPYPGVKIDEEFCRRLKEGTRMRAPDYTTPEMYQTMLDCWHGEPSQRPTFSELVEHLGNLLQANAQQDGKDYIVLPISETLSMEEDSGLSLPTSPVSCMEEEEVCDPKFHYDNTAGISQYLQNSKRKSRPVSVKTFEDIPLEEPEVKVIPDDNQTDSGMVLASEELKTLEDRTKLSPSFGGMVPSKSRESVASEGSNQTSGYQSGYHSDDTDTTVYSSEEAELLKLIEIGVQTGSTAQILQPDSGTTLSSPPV
Procedure: KDR (VEGFR2) Phosphorylation in PAE-KDR Cells Assay
This assay determines the ability of a test compound to inhibit the autophosphorylation of KDR in porcine aorta endothelial (PAE)-KDR cells. PAE cells that overexpress human KDR were used in this assay. The cells were cultured in Ham's F12 media supplemented with 10% fetal bovine serum (FBS) and 400 ug/mL G418. Thirty thousands cells were seeded into each well of a 96-well plate in 75 μL of growth media and allowed to attach for 6 hours at 37° C. Cells were then exposed to the starvation media (Ham's F12 media supplemented with 0.1% FBS) for 16 hours. After the starvation period was over, 10 μL of test agent in 5% DMSO in starvation media were added to the test wells and 10 μL of the vehicle (5% DMSO in starvation media) were added into the control wells. The final DMSO concentration in each well was 0.5%. Plates were incubated at 37° C. for 1 hour and the cells were then stimulated with 500 ng/ml VEGF (commercially available from R & D System) in the presence of 2 mM Na3VO4 for 8 minutes. The cells were washed once with 1 mm Na3VO4 in HBSS and lysed by adding 50 μL per well of lysis buffer. One hundred μL of dilution buffer were then added to each well and the diluted cell lysate was transferred to a 96-well goat ant-rabbit coated plate (commercially available from Pierce) which was pre-coated with Rabbit anti Human Anti-flk-1 C-20 antibody (commercially available from Santa Cruz). The plates were incubated at room temperature for 2 hours and washed seven times with 1% Tween 20 in PBS. HRP-PY20 (commercially available from Santa Cruz) was diluted and added to the plate for a 30-minute incubation. Plates were then washed again and TMB peroxidase substrate (commercially available from Kirkegaard & Perry) was added for a 10-minute incubation. One hundred μL of 0.09 N H2SO4 was added to each well of the 96-well plates to stop the reaction. Phosphorylation status was assessed by spectrophotometer reading at 450 nm. IC50 values were calculated by curve fitting using a four-parameter analysis.

[3] = test system: human umbilical vein endothelial cells (HUVEC); test: HUVEC+VEGF proliferation assay; assay type: cell-based; settings: Homo sapiens, HUVEC; VEGF 6 ng/mL, 72 h, MTT
Summary of the method: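 Exponentially growing passage 3–4 HUVEC were starved 24 h in F12K + 1% FBS, given compound (0.1% final DMSO) 1 h before 6 ng/mL final VEGF, then cultured 72 h. Proliferation was read as MTT dye reduction (4 h exposure), absorbance at 595 nm.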

[4] = test system: Huvec; test: bFGF Huvec proliferation; assay type: cell-based, human; settings: Homo sapiens, HUVEC

Row | SMILES | inhibition at 0.05 µM [1] [%] | Ki [1] [nM] | IC50 [2] [nM] | IC50 [3] [nM] | IC50 [4] [nM]
1 | Cc1c(C(=O)NC2CC2)c2ccc(Oc3ccnc4cc(-c5nccn5C)sc34)cc2n1C [Example 20, 1,2-Dimethyl-6-[2-(1-methyl-1H-imidazol-2-yl)-thieno[3,2-b]pyridin-7-yloxy]-1H-indole-3-carboxylic acid cyclopropylamide] | 99 | 0.082 | 0.217 | 0.19 | 1900
2 | CCCNC(=O)c1c(C)n(C)c2cc(Oc3ccnc4cc(-c5nccn5C)sc34)ccc12 [Example 61, 1,2-Dimethyl-6-[2-(1-methyl-1H-imidazol-2-yl)thieno[3,2-b]pyridin-7-yloxy]-1H-indole-3-carboxylic acid propylamide] | 89 | – | 0.4 | 0.605 | 4000
3 | CNC(=O)c1c(C)n(C)c2cc(Oc3ccnc4cc(C(=O)N5CC[C@@H](O)C5)sc34)ccc12 [Example 19, 1,2-dimethyl-6-(2-[3-hydroxy-pyrrolidine-1-carbonyl]thieno[3,2-b]pyridin-7-yloxy)-1H-indole-3-carboxylic acid methylamide] | 75 | 2.63 | 1.7 | 2.7 | 10000
4 | CNC(=O)c1c(C)n(C)c2cc(Oc3ccnc4cc(C(=O)N5CC[C@@H](OC)C5)sc34)ccc12 [Example 18, 1,2-dimethyl-6-(2-[3-methoxy-pyrrolidine-1-carbonyl]thieno[3,2-b]pyridin-7-yloxy)-1H-indole-3-carboxylic acid methylamide] | 78 | 2.37 | 0.62 | 0.64 | 1000
5 | CCCCNC(=O)c1c(C)n(C)c2cc(Oc3ccnc4cc(-c5nccs5)sc34)ccc12 [Example 62, 1,2-Dimethyl-6-(2-thiazol-2-yl-thieno[3,2-b]pyridin-7-yloxy)-1H-indole-3-carboxylic acid butylamide] | 91 | 0.57 | 0.24 | 2.15 | 619
6 | CNC(=O)c1c(C)sc2cc(Oc3ccnc4cc(C(=O)N5CC[C@@H](OC)C5)sc34)ccc12 [Example 4, 6-(2-[(R)-3-methoxypyrrolidine-1-carbonyl]thieno[3,2-b]pyridin-7-yloxy)-2-methylbenzo[b]thiophene-3-carboxylic acid methylamide] | 88 | 2.58 | 0.47 | 0.404 | –
7 | CNC(=O)c1c(C)n(C)c2cc(Oc3ccnc4cc(-c5nccn5C)sc34)ccc12 [Example 17, 1,2-dimethyl-6-(2-[1-methyl-1H-imidazol-2-yl]thieno[3,2-b]pyridin-7-yloxy)-1H-indole-3-carboxylic acid methylamide] | 77 | 2.77 | 0.47 | 1.2 | 847
8 | CNC(=O)c1c(C)oc2cc(Oc3ccnc4cc(-c5nccn5C)sc34)ccc12 [Example 13] | 97 | 0.322 | 0.21 | 0.082 | 27
9 | CNC(=O)c1c(C)sc2cc(Oc3ccnc4cc(-c5nccn5C)sc34)ccc12 [Example 1, 2-methyl-6-(2-[1-methyl-1H-imidazol-2-yl]thieno[3,2-b]pyridin-7-yloxy)benzo[b]thiophene-3-carboxylic acid methylamide] | 92 | 1.02 | 0.31 | 0.68 | 122
10 | CNC(=O)c1c(C)sc2cc(Oc3ccnc4cc(C(=O)N5CCC[C@H]5CO)sc34)ccc12 [Example 3] | 59 | 0.811 | 0.9 | 0.442 | 942
11 | CNC(=O)c1c(C)sc2cc(Oc3ccnc4cc(C(=O)N5CC[C@@H](O)C5)sc34)ccc12 [Example 6, 6-(2-[(R)-3-hydroxypyrrolidine-1-carbonyl]thieno[3,2-b]pyridin-7-yloxy)-2-methylbenzo[b]thiophene-3-carboxylic acid methylamide] | 94 | 0.721 | – | 1.2 | 145
12 | CNC(=O)c1c(C)sc2cc(Oc3ccnc4cc(C(=O)N5CCC[C@H]5COC)sc34)ccc12 [Example 2, 6-(2-[(S)-2-(methoxymethyl)pyrrolidine-1-carbonyl]thieno[3,2-b]pyridin-7-yloxy)-2-methylbenzo[b]thiophene-3-carboxylic acid methylamide] | 75 | 4.14 | 1.8 | 2.3 | 3330
13 | CNC(=O)c1c(C)oc2cc(Oc3ccnc4cc(C(=O)N5CC[C@@H](OC)C5)sc34)ccc12 [Example 12, 6-(2-[3-methoxypyrrolidine-1-carbonyl]thieno[3,2-b]pyridin-7-yloxy)-2-methylbenzofuran-3-carboxylic acid methylamide] | 100 | 0.314 | 0.14 | 0.26 | 20
